Results from a melting point compilation (Tetko et al.; mined from patent text by program, amines drawn as free bases though some values may be those of a salt).

melting point | Structure (SMILES)
203 to 204 °C | Cc1cccc(C)c1NC(=O)Nc1sc2ccc(Cl)cc2c1-c1ccccc1Cl
217 to 218 °C | O=C1Nc2ccccc2C(=O)N2CC[C@@H]12
220 to 221 °C | O=C(Nc1nc2n(n1)Cc1ccccc1-2)c1ccccc1
112 to 113 °C | Cc1cc(F)ccc1CCC(=O)O
149 to 152 °C | COc1cc2c(cc1-c1ccccc1)CCN=C2C1(c2ccccc2Cl)CCC1
271 °C | C#CCn1c(=O)c2c(nc(C#Cc3cccc(O)c3)n2C)n(C)c1=O
74 °C | CC(C)(C)OC(=O)C(Nc1ccccc1)c1ccccc1Cl (racemic)
190 to 191 °C | CCCCOc1c(CNC(=O)OC(C)(C)C)n(CC(C)C)c(=O)c2ccc(-n3ccnn3)cc12
91 to 92 °C | CC(Cn1cc(Cl)c(-c2ccccc2Cl)n1)C(=O)N(C)C (centres undefined)
229 °C | O=CNc1nc(-c2cccnc2)c(Cl)s1
97 to 98 °C | CCn1cc(CC(=O)O)c(OCCCc2ccc(Cc3ccccn3)cc2OC(C)C)n1
105 to 107 °C | CC(C(=O)O)c1ccc(Oc2ccc(Cl)cc2)cc1 (centres undefined)
144 to 146 °C | COC1(c2ccc(OC(C)=O)cc2)Sc2ccccc2N(C)C1=O (centres undefined)
71 to 83 °C | CN(C)Cc1cccc(C(F)(F)C(F)(F)c2ccccc2)c1CN
168 °C | COc1ccc(S(=O)(=O)N2C(=O)C(c3ccccc3OC)(N3Cc4ccccc4C3C(=O)N(C)C)c3cc(Cl)ccc32)c(OC)c1 (centres undefined)
202 to 203 °C | CCOC(=O)c1sc(Nc2ccccc2)c2c1CCc1cn[nH]c1-2
122 °C | CCCCNc1cncc(C(=NCCc2ccccc2Cl)NC#N)c1
162 to 165 °C | Cc1ccc2c(c1)N(CC(=O)c1ccccc1C)C(=O)C(NC(=O)Nc1cccc(C(=O)O)c1)CN2C(=O)C(C)C (centres undefined)
135 to 136 °C | Cc1nc[nH]c1CSCCNC(=NCCc1ccccc1)NC#N
113 to 114 °C | COC(=O)C(CC(F)(F)F)Nc1nc(-c2ccc(Br)cc2)cs1 (centres undefined)
167 to 168 °C | CC(C)C(=O)NC1=NN(c2cccc(C(F)(F)F)c2)CC1

melting point | Structure (SMILES)
104 to 117 °C | CC(ON1C(C)(C)CC2(CC1(C)C)OCC(C)(C)CO2)c1ccc(C(=O)c2ccccc2)cc1 (centres undefined)
136 °C | O=CNC(c1cccc(Cl)c1)c1ccnc2ccccc12 (centres undefined)
125 to 127 °C | COc1ccc2c(c1)C(C(=O)N(Cc1ccc(OCC(F)(F)F)cc1)c1ccc(C(C)C)cc1)CCC2 (centres undefined)
81 to 82 °C | COc1ccc(-c2sc(-c3ccccc3)cc2OC(C)=O)cc1
99 to 100 °C | O=C(O)C(CCCc1cccc2ccccc12)c1ccccc1 (centres undefined)
169 to 171 °C | Cc1cc(CN2C(=O)C3(COc4cc5c(cc43)OCO5)c3ccccc32)c(C)n1C(C)C (centres undefined)
83 to 84 °C | Cc1nn(-c2ccccn2)cc1COc1ccc(CO)cc1
192 to 198 °C | O=C(O)CCc1cc2cc(Cl)c(Cl)cc2n1S(=O)(=O)c1ccccc1
131 °C | CCN(CC(=O)O)Cc1cc(/C(=N\O)c2cccc(Br)c2)ccc1[N+](=O)[O-]
208 to 210 °C | COC(=O)C1=C(C)NC(C)=C(/C=C/S(=O)(=O)N(C)Cc2ccccc2)C1c1cccc([N+](=O)[O-])c1 (centres undefined)
188 to 190 °C | Cc1c(NC(=O)CC(C)(C)C)c(C)c2c(c1-c1ccc[nH]1)OCC2c1ccc(C(C)C)cc1 (centres undefined)
136 to 137 °C | CNC(=O)/C(=N/OC)c1ccccc1COc1ccc(-c2ccccc2)cc1
210 to 212 °C | Cn1nc(-c2nc(C#N)c(C#N)nc2-c2ccccc2)ccc1=O
248 to 250 °C | COc1ccc2cc(C(=O)Oc3ccc(Cl)cn3)c(=O)oc2c1
245 to 248 °C | O=C(Nc1nc(-c2ccccn2)nc2ccccc12)C(F)(F)F
167 °C | COc1cccc(CCN2C(=O)c3ccccc3C2(O)c2ccc(C(F)(F)F)cc2)c1 (centres undefined)
136 to 137 °C | CC(C)C[C@H](NC(=O)c1ccccc1)C(=O)NC#N
64 to 68 °C | Cc1nnsc1C(=O)NCCc1ccccc1
114 to 115 °C | N#Cc1[nH]ccc1-c1ccccc1Cl
134 to 136 °C | CC(C)Cc1cc2nnc(-c3ccccc3F)n2nc1OCc1ncnn1C
120 °C | CCCCNc1ccccc1S(=O)(=O)NC(=O)n1nc(SC)n(C)c1=O

The next lines start with the molecule.

Structure (SMILES) | melting point
Cc1ccc(S(=O)(=O)ON=C2CC(c3ccccc3)c3ccccc32)cc1 (centres undefined) | 123 to 127 °C
NC(=O)NCc1ccc(CNC(=O)[C@@H](CCCNC(N)=N[N+](=O)[O-])NC(=O)Nc2cccc3ccccc23)cc1 | 210 °C
Nc1nccc(-c2c[nH]c3nccc(OC4CCCCC4)c23)n1 | > 210 °C
Nc1nc2c(sc(=O)n2CCCCC(=O)O)c(=O)[nH]1 | 263 to 265 °C
COc1ccc(Oc2c(C)cc(N)cc2C)cc1C(C)C | 95 to 100 °C
O=C1CCC(N2Cc3c(OCc4ccc(CN5CCCOCC5)cc4)cccc3C2=O)C(=O)N1 (centres undefined) | 119 to 121 °C
CC(C)(C)c1cc(C(C)(C)C)cc(C(C)(C)CC(=O)OP2(=O)Oc3c(cc(C(C)(C)C)cc3C(C)(C)C)Cc3cc(C(C)(C)C)cc(C(C)(C)C)c3O2)c1 | 188 °C
COc1ccc(C2(C#N)CCC(=NO)CC2)cc1OC1CCCC1 (centres undefined) | 50 to 53 °C
O=C1CC(c2cccc(-n3ccnc3)c2)=Nc2cc(N3CCC(O)CC3)c(-c3ccc(F)cc3)cc2N1 | 238 to 240 °C
COC(=O)CCCOc1ccc(CC(C)NCC(O)c2cc3ccccc3o2)cc1 (centres undefined) | 63 to 70 °C
COc1cc2sc(C3=NNC(=O)CC3C)cc2cc1OCCCN1CCCCC1 (centres undefined) | 198 to 200 °C
CCCCCCC[C@H]1C(=O)OC[C@H](NC(=O)c2nccc(OC)c2O)C(=O)O[C@@H](C)[C@@H]1OC(=O)C(C)C | 131 to 134 °C
COc1ccc(Oc2nc(Nc3cccc(C(=O)O)c3)nc(Oc3ccccc3)n2)cc1 | 233 to 236 °C
CC(=O)c1ccc(NS(C)(=O)=O)c(Oc2ccc(F)cc2F)c1 | 117 to 118 °C
CC(C)C[C@@H](C(=O)N1CCN(C(c2ccc(F)cc2)c2ccc(F)cc2)CC1)N(C)C1CCCCC1 | 171 to 182 °C
COc1cccc(CC(=O)O)c1OCCCc1cn(-c2ccc(C(F)(F)F)cn2)nc1C1CCCCC1 | 140 to 141 °C
Cc1c(O[Si](C)(C)C(C)(C)C)cc(O[Si](C)(C)C(C)(C)C)cc1C(=O)O[Si](C)(C)C(C)(C)C | 64 °C
CCCCCCCCCCCC(=O)NC(CCC(=O)O)C(=O)O (racemic) | 101 to 104 °C
ClCSc1c(Cl)c(Cl)cc(Cl)c1Cl | 81 to 82 °C
CC(C)(C)c1n[nH]c2c1C(C1CCCCC1)N(c1ccc(-c3ccon3)cc1)C2=O (centres undefined) | 251 to 252 °C
CCN(CC)c1ncnc2nc(-c3ccncc3)[nH]c12 | 260 to 262 °C
CCCC[C@H](OCC[C@]1(C(=O)N2CCC(OCOC)CC2)C=CC=CC1)C(=O)N[C@@H](CC1CCCCC1)[C@@H](O)C(F)(F)CN(C)C | 47 to 49 °C
Cc1c(C)c2c(c(C)c1NC(=O)CC(C)(C)C)C(c1cccc(C=O)c1)CO2 (centres undefined) | 178 to 179 °C
CCCOC(OCCC)P(=O)(O)CCCN | 223 to 225 °C
COc1ccc2[nH]c(C)c(Cc3cc(=O)n(C4CCCCC4)[nH]3)c2c1 | 99 to 101 °C
CC(=O)COc1ccc(CC2SC(=O)NC2=O)cc1 (centres undefined) | 158 to 159 °C

Structure (SMILES) | melting point
COc1cc2c(cc1O)C1Cc3c(Cl)cc(OC)c(OCC(=O)O)c3CN1CC2 (centres undefined) | 172 to 174 °C
C=CCC(C)(C)C(=O)O[C@H]1C[C@H](O)C=C2C=C[C@H](C)[C@H](CCC3CC(O)CC(=O)O3)[C@H]21 (some centres undefined) | 141 to 142 °C
CCCCCCCCCCCCNc1cc(C)c(C)cc1N | 53 to 54 °C
C=CCN1CCC(c2cc(-c3ccc(Cl)cc3)[nH]n2)CC1 | 165 to 167 °C
ClCCN(CCCl)CCCCOc1cccc(Nc2c3ccccc3nc3c(OCCN(CCCl)CCCl)cccc23)c1 | 95 to 96 °C
CCCCCCCCOc1ccc2c(OC(C)=O)c3cc4ccccc4cc3c(OC(C)=O)c2c1 | 107 to 111 °C
COc1cc(C)c(C(=O)c2c(OC)cnc(Cl)c2C(F)(F)F)c(OC)c1OC | 117 to 119 °C
COc1ccc(C2(O)CCC3(CC2)OCCO3)c2c1OCCO2 | 94 to 96 °C
CC(Oc1ccc(Oc2ncc(Cl)cc2F)cc1)C(=O)Nc1ccc(OC(F)(F)F)cc1 (centres undefined) | 92 to 93.5 °C
C(=C\c1nc(COc2ccc(CCn3ccnc3)cc2)co1)/c1ccccc1 | 165 to 166 °C
O=c1ccn(C2OC(C(O)CO)C(O)C2O)c(=O)[nH]1 (centres undefined) | 175 to 176 °C
O=C(CCCN1CCN(c2ccc(F)cc2)CC1)NC1c2ccccc2CSc2ccccc21 (centres undefined) | 194 °C
COc1ccc(COC(=O)CNC=S)cc1 | 107 to 108 °C
CNC(=O)[C@H](Cc1ccc(OC)cc1)NC(=O)[C@@H](N)CC(C)C | 128 to 132 °C
C=CCc1c(Cl)cc2c(c1O)CCC2 | 37 to 39 °C
CP(C)(=O)C(O)C(N)=O (centres undefined) | 155 °C
COc1ccc(NCC2CCn3c(nc4ccccc43)S2)cc1 (centres undefined) | 155 to 157 °C
Cc1nc(N2CCC(Cc3ccc(F)cc3)C2=O)sc1C(=O)NCc1ccc(F)cc1 (centres undefined) | 196 to 197 °C
COc1ccc(C2=C(c3ccc(C=CC(=O)O)cc3)c3ccc(OC)cc3CC2)cc1 | 206 °C
COCOCc1c([N+](=O)[O-])cc(OC)c(OC)c1OC | 39 to 40 °C
CCCOc1cc(C=CC(=O)N2CCN(c3ccc(NC(=N)c4cccs4)cc3)CC2)cc(OCCC)c1O | 72 to 73 °C
COc1cc(C2COc3c(C)c(C)c(NC(=O)CC(C)(C)C)c(C)c32)ccc1C(C)=O (centres undefined) | 131 to 133 °C
CC(=O)Nc1nc(C)c(CCN2CCC(=C(c3ccc(F)cc3)c3ccc(F)cc3)CC2)c(=O)n1C | 141 °C
Nc1ccccc1NC(=O)c1ccc(C(=O)Nc2cccc(Nc3nc(-c4cccnc4)cs3)c2)cn1 | 148 to 150 °C
CC(C)C[C@H](NC(=O)[C@H](Cc1c[nH]cn1)NC(=O)[C@H](Cc1cccc2ccccc12)NC(=O)OCc1ccccc1)[C@@H](O)CC(N)=O | 158 to 161 °C
COc1ccc(NC(=O)c2ccc(C#N)cc2)cc1 | 155 to 157 °C
